B1: LXRb: Liver X Receptor β (NR1H2), cDNA driver (protein, UniProt P55055 1-460, looked up)
Oxysterols receptor LXR-beta: MSSPTTSSLDTPLPGNGPPQPGAPSSSPTVKEEGPEPWPGGPDPDVPGTDEASSACSTDWVIPDPEEEPERKRKKGPAPKMLGHELCRVCGDKASGFHYNVLSCEGCKGFFRRSVVRGGARRYACRGGGTCQMDAFMRRKCQQCRLRKCKEAGMREQCVLSEEQIRKKKIRKQQQESQSQSQSPVGPQGSSSSASGPGASPGGSEAGSQGSGEGEGVQLTAAQELMIQQLVAAQLQCNKRSFSDQPKVTPWPLGADPQSRDARQQRFAHFTELAIISVQEIVDFAKQVPGFLQLGREDQIALLKASTIEIMLLETARRYNHETECITFLKDFTYSKDDFHRAGLQVEFINPIFEFSRAMRRLGLDDAEYALLIAINIFSADRPNVQEPGRVEALQQPYVEALLSYTRIKRPQDQLRFPRMLMKLVSLRTLSSVHSEQVFALRLQDKKLPPLLSEIWDVHE
B2: HNF4a: Hepatocyte Nuclear Factor α (NR2A1), cDNA driver (protein, UniProt P41235 1-474, looked up)
Hepatocyte nuclear factor …: MRLSKTLVDMDMADYSAALDPAYTTLEFENVQVLTMGNDTSPSEGTNLNAPNSLGVSALCAICGDRATGKHYGASSCDGCKGFFRRSVRKNHMYSCRFSRQCVVDKDKRNQCRYCRLKKCFRAGMKKEAVQNERDRISTRRSSYEDSSLPSINALLQAEVLSRQITSPVSGINGDIRAKKIASIADVCESMKEQLLVLVEWAKYIPAFCELPLDDQVALLRAHAGEHLLLGATKRSMVFKDVLLLGNDYIVPRHCPELAEMSRVSIRILDELVLPFQELQIDDNEYAYLKAIIFFDPDAKGLSDPGKIKRLRSQVQVSLEDYINDRQYDSRGRFGELLLLLPTLQSITWQMIEQIQFIKLFGMAKIDNLLQEMLLGGSPSDAPHAHHPLHPHLMQEHMGTNVIVANTMPTHLSNGQMCEWPRPRGQAATPETPQPSPPGGSGSEPYKLLPGAVATIVKPLSAIPQPTITKQEVI

What was measured:
mDio1 promoter = experiment: NHR-promoter luciferase screen, mDio1 promoter; assay type: cell-based, mouse; settings: for Luc. act., normalized to lacZ / Normalized Luc. act., normalized to control: Dio1, HR component without or with its ligand; for mDio1 promoter reporter activity: transcription factor +/- ligand, control = 1.00
Protocol: (§1) The use, feasibility, and reproducibility of the functional NHR-promoter screen in a 48-well format have been tested validated. Briefly, there were co-expressed 50 ng of each NHR/NHR homodimer or NHR/RXR heterodimer with 100 ng promoter/luciferase construct and 50 ng of LacZ (as a control for transfection efficiency) in CV-1 cells using Fugene HD (Roche) as a transfection reagent (alternatively or additionally, a CMV-YFP construct can be used as a transfection control). Each of the nuclear hormone receptors that were used in these experiments was cloned into a pcDNA3.1 vector and comprised a C-terminally linked V5H6 tag. Twenty-four hours after transfection, appropriate ligands were added, where applicable, (see Table 5 for various ligands and concentrations and after 48 hrs, samples were assayed for luciferase and LacZ activity. To measure for luciferase activity 15 ul of sample was added to 30 ul of luciferase buffer (20 mM tricine, 1.07 mM MgCarbonate, 2.67 mM MgSulfate, 0.1 mM Naz-EDTA, 5 mM DTT, 5 mM ATP, 0.15 mg/ml CoA, 0.5 mM Luciferin), mixed briefly, and run in a Perkin Elmer Victor 5 luminometer. Thus, the functional NHR-promoter screen was used to observe the transcriptional activity of 29 promoters from various physiological pathways including inflammation, lipid and sugar metabolism, cholesterol transport, xenobiotic metabolism, and circadian rhythm.
(§2) The promoters that facilitate transcription of the indicated gene products that were tested using the protocols described herein are listed in the first row of the table. The nuclear hormone receptors and, where applicable, ligands that were assayed for their transcriptional effects on the promoters are listed in the first column of the table. The data represent the luciferase activity of each sample normalized to both the lacZ activity of that sample and to a control, e.g., no NHR or ligand, as customary in the art. As described previously, these normalizations allow the transcriptional activity of each reporter cell to be compared to other samples.
(§3) Tables 7-40 show the transcriptional effects of the hormone receptors, and, where applicable, ligands (orphan receptors are screened without ligand), on each individual promoter. […] The control data of each table are shown in their last rows.

hMyoD promoter = experiment: NHR-promoter luciferase screen, hMyoD promoter; assay type: cell-based, human; settings: for Luc. act., normalized to lacZ / Normalized Luc. act., normalized to control: MyoD promoter reporter, co-transfected HR, without or with its ligand; for Normalized Luc. act., normalized to control: relative to control; for luciferase activity normalized to lacZ activity and to a control, hMyoD: hMyoD promoter-luciferase, CV-1 cells, NHR +/- ligand, control = 1.00
Protocol: as §1, §2, §3

MCP-1 promoter = experiment: NHR-promoter luciferase screen, MCP-1 promoter; assay type: cell-based; settings: for Normalized Luc. act., normalized to control / Luc. act., normalized to lacZ: MCP-1 promoter reporter; for Normalized Luc. act., normalized to control: HR without or with its ligand, relative to control; for Luc. act., normalized to lacZ: hormone receptor (HR) without or with its ligand; for mMCP-1 promoter reporter activity: transcription factor +/- ligand, control = 1.00
Protocol: as §1, §2, §3

Molecule	Luc. act., normalized to lacZ (mDio1 promoter)	Normalized Luc. act., normalized to control (mDio1 promoter)	mDio1 promoter reporter activity (mDio1 promoter)	Luc. act., normalized to lacZ (hMyoD promoter)	Normalized Luc. act., normalized to control (hMyoD promoter)	luciferase activity normalized to lacZ activity and to a control, hMyoD (hMyoD promoter)	Normalized Luc. act., normalized to control (MCP-1 promoter)	Luc. act., normalized to lacZ (MCP-1 promoter)	mMCP-1 promoter reporter activity (MCP-1 promoter)
AR: Androsterone Receptor (NR3C4), cDNA driver	6.4	1.4	1.43	57.5	0.9	0.91	0.6	62.4	0.58
ERR1: Estrogen Related Receptor α (NR3B1, ERRa), cDNA driver	6.2	1.4	1.39	69.1	1.1	1.09	2.2	237.3	2.22
GR: Glucocorticoid Receptor (NR3C1), cDNA driver	2.5	0.6	0.55	26.4	0.4	0.42	0.2	23.9	0.22
NR4a1: NR4a1 (NR4A1; NUR77), nuclear hormone receptor cDNA driver	10.9	2.4	2.45	152.5	2.4	2.41	0.7	76.3	0.71
PNR: Photoreceptor-specific Nuclear Receptor (NR2E3), cDNA driver	6.4	1.4	1.44	37.1	0.6	0.59	1.1	116.3	1.09
PPARa: Peroxisome proliferator activated receptor α (NR1C1), cDNA driver	4.7	1.1	1.06	63.7	1.0	1.01	1.1	121.8	1.14
RXRa: Retinoic X Receptor α (NR2B1), cDNA driver	5.5	1.2	1.24	51.2	0.8	0.81	1.6	170.8	1.60
SF-1: Steroidogenic Factor 1 (NR5A1, SF1), cDNA driver	19.8	4.5	4.45	151.2	2.4	2.39	2.0	217.9	2.04
TLX: Tailless (homolog of drosophila) (NR2E1), cDNA driver	8.4	1.9	1.88	31.3	0.5	0.49	0.6	60.9	0.57
VDR: Vitamin D Receptor (NR1I1), cDNA driver	7.6	1.7	1.71	52.8	0.8	0.83	2.0	215.8	2.02
B1	9.8	2.2	2.19	54.6	0.9	0.86	1.9	198.9	1.86
B2	10.0	2.3	2.25	65.5	1.0	1.03	0.7	78.0	0.73

— patent publication US20110263454A1, “Methods of Identifying Functional Characteristics of Promoters, Transcription Modifying Proteins and Transcription Modulating Agents” (Salk Institute for Biological Studies, priority 2008, published 2011)
